In publication PMC11096368, “Transcriptomic signature, bioactivity and safety of a non-hepatotoxic analgesic generating AM404 in the midbrain PAG region” (Scientific Reports, 2024):
“And” between values parts separate entries of the source, which are not always exact repeats. Equal values may be shown once. Read-outs that look alike come from different tables or passages of the source.

Key:
[1] = Phase 1 single ascending dose (SAD) pharmacokinetics incl. food effect; format: in vivo, human; settings: for Tmax (h) / Tmax: N 6; for AUC(0-t) / AUC(0-inf) / Cmax / half-life / Tmax: human, plasma; for AUC(0-t) / AUC(0-inf) / Cmax / half-life: oral; for Tmax: po
Method: A randomized, double-blind, placebo-controlled Phase 1 trial (ClinicalTrials.gov identifier: NCT05484414) (02/08/2022) was conducted to assess the safety, tolerability, food effect, pharmacokinetics (PK), and pharmacodynamics (PD) of single and multiple ascending doses of SRP-001 (Quotient Sciences, Miami FL USA; Fig. 3h - k and Methods). The trial was conducted in accordance with the International Council for Harmonisation of Technical Requirements for Pharmaceuticals for Human Use (ICH), Guideline for GCP: Consolidated Guidance (E6), attained Institutional Review Board approval, and all applicable regulatory requirements for Phase 1, First in Human clinical trials. Safety measurements and plasma samples to determine PK parameters were collected throughout the study for all subjects and reviewed by the Safety Review Committee. PK stopping criteria were established to assure that systemic exposure to SRP-001 was less than or equal to the systemic exposure achieved at the NOAEL doses in the 28-day repeat-dose toxicology studies in the rat and dog. The trial’s Safety Advisory Committee has approved the publication of the Phase 1 results.
SRP-001 was administered as an oral nanosuspension to 56 healthy volunteers across five Single Ascending Dose (SAD) and two Multiple Ascending Dose (MAD) cohorts, with 42 subjects receiving SRP-001 and 14 receiving a placebo.
A two-part randomized, double-blind, placebo-controlled Phase 1 trial was conducted to assess the safety, tolerability, PK and PD of SRP-001 ascending doses (Quotient Sciences, Miami, FL, USA). The study was conducted in accordance with the International Council for Harmonisation of Technical Requirements for Pharmaceuticals for Human Use (ICH), Guideline for GCP: Consolidated Guidance (E6), and applicable regulatory requirements(s) including clinical research guidelines established by the Basic Principles defined in the U.S. 21 CFR Parts 50, 56, and 312 and the principles enunciated in the Declaration of Helsinki (revised version Fortaleza 2013). The clinical protocol and informed consent form were reviewed and approved by an Institutional Review Board (IRB; Advarra IRB, 6100 Merriweather Drive, Suite 600, Columbia, MD 21,044; Quotient Protocol No. SRP-101 and Quotient Sciences Study No. QSC205130; Quotient Sciences Miami, 3898 NW 7th Street, Miami, FL 33,126.). The study comprises a SAD (Part 1) assessment that includes a food effect assessment that contributes data to inform a subsequent MAD (Part 2) dose-ranging study. Safety measurements were collected throughout the study for all subjects. Blood samples were collected to determine the PK parameters of SRP-001 (ClinicalTrials.gov identifier: NCT05484414) (02/08/2022).
NHVs were dosed in the fasted state. The calorie/fat content of meals was not required to be controlled. Subjects were provided with a standardized menu. Subjects were provided with a light snack and then fasted from all food and drink (except water) for a minimum of 10 h on the day prior to dosing until approximately 4 h post-dose, at which time lunch was provided. An evening meal was provided at approximately 10 h post-dose/post-morning dose and an evening snack at approximately 14 h post-morning dose. Food effect was studied in the cohort receiving 900 mg SRP-001 in the fed state. A standard high-fat breakfast was given 30 min before dosing. On Day -1, these NHVs were provided with a light snack and fasted from all food and drink (except water) until the following morning, when they were provided with a standard high-fat breakfast. The breakfast had to be consumed over a maximum period of 25 min, with dosing occurring 30 min after the start of breakfast. Subjects were encouraged to eat their meal evenly over the 25 min period. It was acknowledged that some subjects took less time to eat, but dosing still occurred 30 min after the start of breakfast. Subjects had to consume at least 90% to be eligible for dosing. […]

beagle dogs = settings: dog, in vivo
Method: Two beagle dogs (1/sex) were administered 30, 100, 250, or 500 mg/kg SRP-001. […] After a period of at least 2 d (minimum of 44 h) following the previous dose of test article, additional dose levels of SRP-001, as indicated above, were administered by oral gavage to the same 2 dogs (1 male and 1 female). Each dose was based on the dog’s most recent body weight. Mortality/morbidity was observed twice daily and once prior to scheduled sacrifice. Body weights were recorded prior to randomization/selection, prior to each dose administration, and prior to scheduled sacrifice. At scheduled sacrifice, a gross necropsy was performed, and the tissues were appropriately discarded. […] Doses for Phase II of the study were set based on Phase I results. The actual dose amounts selected for Phase II of the study were 0, 30, 100, or 300 mg/kg/d of SRP-001. These doses were administered once daily for seven consecutive days to 1 Beagle dog/sex/dose.

[2] = 300 mg, Cohort 1, Regimen A, Fasted, geometric mean (geometric CV%)
[3] = 600 mg, Cohort 2, Regimen B, Fasted, geometric mean (geometric CV%)
[4] = 900 mg, Cohort 3, Regimen C, Fasted, geometric mean (geometric CV%)
[5] = 900 mg, Cohort 3, Regimen D, Fed, geometric mean (geometric CV%)
[6] = 2000 mg, Cohort 4, Regimen E, Fasted, geometric mean (geometric CV%)
[7] = relative bioavailability, Cohort 4, Regimen E, text b207 under 900 mg fed state

## CCN(CC)C(=O)c1ccccc1S(=O)(=O)NCC(=O)Nc1ccc(O)cc1 [SRP-001, N,N-diethyl-2-[[2-(4-hydroxyanilino)-2-oxo-ethyl]sulfamoyl]benzamide]
[1]; 2000 mg, fasted
  Geometric mean AUC(0–24) as share of the exposure limits defined in the protocol: 31%
  Geometric mean Cmax as share of the exposure limits defined in the protocol: 34%
[1]; 300 to 2000 mg
  Dose proportionality of geometric mean Cmax and AUC(0-∞): dose-proportional or super-proportional increase
[1]; Cohort 1, Regimen A, 300 mg, Fasted, geometric mean (geometric CV%)
  T1/2 (h): 2.38 (65.9) h
[1]; Cohort 2, Regimen B, 600 mg oral suspension, Fasted
  Tmax (h): 1 (1.00–2.00) h
[1]; Cohort 2, Regimen B, 600 mg, Fasted, geometric mean (geometric CV%)
  T1/2 (h): 5.04 (107.8) h
[1]; Cohort 3, Period 2: Regimen D, 900 mg oral suspension, Fed
  Tmax (h): 1 (1.00–8.00) h
[1]; Cohort 3, Regimen C, 900 mg, Fasted, geometric mean (geometric CV%)
  T1/2 (h): 3.26 (62.1) h
[1]; Cohort 3, Regimen D, 900 mg, Fed, geometric mean (geometric CV%)
  T1/2 (h): 3.79 (74.5) h
[1]; Cohort 4, Regimen E, 2000 mg oral suspension, Fasted
  Tmax (h): 1 (1.00–2.00) h
[1]; Cohort 4, Regimen E, 2000 mg, Fasted, geometric mean (geometric CV%)
  T1/2 (h): 5.96 (65.9) h
[1]; dose from 300 to 600 mg
  Increase of geometric mean AUC(0–24): 3.5 fold
  Increase of geometric mean Cmax: 2.6 fold
[1]; dose from 600 to 900 mg
  Increase of geometric mean AUC(0–24): 1.2 fold
  Increase of geometric mean Cmax: 1.6 fold
[1]; dose from 900 to 2000 mg (2.2-fold increase in dose)
  Increase of geometric mean Cmax: 1.7 fold
[1]; 300 mg, Cohort 1, Regimen A, 300 mg, Fasted, geometric mean (geometric CV%), read-out: AUC0-24
  AUC(0-t): 1620 ng·h/mL
[1]; 300 mg, Cohort 1, Regimen A, 300 mg, Fasted, geometric mean (geometric CV%), read-out: AUC0-last
  AUC(0-t): 1320 ng·h/mL
[1]; [2]
  AUC(0-inf): 1630 ng·h/mL
  Cmax: 665 ng/mL
  half-life: 2.4 h
[1]; 300 mg, fasted, geometric mean, read-out: AUC(0–48)
  AUC(0-t): 1630 ng·h/mL
[1]; 600 mg, Cohort 2, Regimen B, 600 mg, Fasted, geometric mean (geometric CV%), read-out: AUC0-24
  AUC(0-t): 5660 ng·h/mL
[1]; 600 mg, Cohort 2, Regimen B, 600 mg, Fasted, geometric mean (geometric CV%), read-out: AUC0-last
  AUC(0-t): 4940 ng·h/mL
[1]; [3]
  AUC(0-inf): 5840 ng·h/mL
  Cmax: 1740 ng/mL
  half-life: 5 h
[1]; 900 mg, Cohort 3, Regimen C, 900 mg, Fasted, geometric mean (geometric CV%), read-out: AUC0-24
  AUC(0-t): 6870 ng·h/mL
[1]; 900 mg, Cohort 3, Regimen C, 900 mg, Fasted, geometric mean (geometric CV%), read-out: AUC0-last
  AUC(0-t): 6810 ng·h/mL
[1]; [4]
  AUC(0-inf): 6970 ng·h/mL
  Cmax: 2700 ng/mL
  half-life: 3.3 h
[1]; 900 mg, Cohort 3, Regimen D, 900 mg, Fed, geometric mean (geometric CV%), read-out: AUC0-24
  AUC(0-t): 6250 ng·h/mL
[1]; 900 mg, Cohort 3, Regimen D, 900 mg, Fed, geometric mean (geometric CV%), read-out: AUC0-last
  AUC(0-t): 6130 ng·h/mL
[1]; [5]
  AUC(0-inf): 5910 ng·h/mL
  Cmax: 1200 ng/mL
  half-life: 3.8 h
[1]; 2000 mg, Cohort 4, Regimen E, 2000 mg, Fasted, geometric mean (geometric CV%), read-out: AUC0-24
  AUC(0-t): 18900 ng·h/mL
[1]; 2000 mg, Cohort 4, Regimen E, 2000 mg, Fasted, geometric mean (geometric CV%), read-out: AUC0-last
  AUC(0-t): 19100 ng·h/mL
[1]; [6]
  AUC(0-inf): 19600 ng·h/mL
  Cmax: 4590 ng/mL
  half-life: 6 h
[1]; 300 mg, Cohort 1, Regimen A, 300 mg oral suspension, Fasted
  Tmax: 1 h
[1]; 600 mg, Cohort 2, Regimen B, 600 mg oral suspension, Fasted
  Tmax: 1 to 2 h
[1]; 900 mg, Cohort 3, Period 1: Regimen C, 900 mg oral suspension, Fasted
  Tmax: 1 h
[1]; 900 mg, Cohort 3, Period 2: Regimen D, 900 mg oral suspension, Fed
  Tmax: 1 to 8 h
[1]; 2000 mg, Cohort 4, Regimen E, 2000 mg oral suspension, Fasted
  Tmax: 1 to 2 h
[1]; [7]
  Frel AUC(0- last) (%): 98.4% and 98.4a (16.3) %
  Frel AUC(0-inf) (%): 101% and 101a (20.3) %
  Frel AUC(0–24) (%): 99.2% and 99.2a (19.0) %
  Frel Cmax (%): 48.4% and 48.4a (21.9) %
Beagle dogs
  Gross necropsy: some red discoloration in the GI tract
